Test results taken from article PMC5875417 (ACS chemical neuroscience, 2015).
Values joined by “and” are separate entries in the source; they are usually repeats but may differ in a detail not shown here. Identical values can stand only once. Like-named read-outs stand apart in the source and are kept apart here.

Target: human dopamine transporter (hDAT) (Homo sapiens, UniProt Q01959)
Test: cell-based
Type: cell-based
Details: for Relative persistent current (Ip relative to Io) after washout: as a function of concentration, Ip current remaining after washout before block with cocaine; for Depolarizing current: data not shown
[1] = Hill fit of dose-response normalized to 10 μM DA, −60 mV
[2] = ability to generate a persistent current at 10 μM and −60 mV

Sequence of human dopamine transporter (hDAT) (Q01959 whole entry): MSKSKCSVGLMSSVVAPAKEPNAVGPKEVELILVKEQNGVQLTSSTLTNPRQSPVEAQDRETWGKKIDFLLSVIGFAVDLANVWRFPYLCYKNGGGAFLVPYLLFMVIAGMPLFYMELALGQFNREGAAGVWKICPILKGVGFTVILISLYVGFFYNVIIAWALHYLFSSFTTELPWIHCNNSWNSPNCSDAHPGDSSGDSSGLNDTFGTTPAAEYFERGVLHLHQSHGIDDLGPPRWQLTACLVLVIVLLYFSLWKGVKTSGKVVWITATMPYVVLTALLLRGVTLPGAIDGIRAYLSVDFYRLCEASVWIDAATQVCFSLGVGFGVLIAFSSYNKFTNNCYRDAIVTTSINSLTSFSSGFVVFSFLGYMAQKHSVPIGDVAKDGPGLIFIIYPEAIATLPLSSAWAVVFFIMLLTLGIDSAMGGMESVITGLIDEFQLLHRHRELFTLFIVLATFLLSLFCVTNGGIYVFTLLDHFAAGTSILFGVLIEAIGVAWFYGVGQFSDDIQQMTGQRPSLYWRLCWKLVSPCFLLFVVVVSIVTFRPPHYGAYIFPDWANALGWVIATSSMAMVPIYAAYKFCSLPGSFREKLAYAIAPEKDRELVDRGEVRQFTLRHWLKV

NCCc1ccccc1 [β-PEA (5), 2-phenyl-1-aminoethane, reference compound]
Persistent Current (100 μM, −60 mV): pronounced persistent current | Hill coefficients [1]: 1.06 ± 0.16 | Persistent Current [2]: Yes | Relative persistent current (Ip relative to Io) after washout (−60 mV): much lower persistent current than S(+)AMPH (S1)

Br.C[C@@H](N)Cc1ccc(O)c(O)c1 [R(−) α-Me DA (R7), R(−)-1-(3,4-Dihydroxyphenyl)-2-aminopropane hydrobromide]
Hill coefficients [1]: 0.55 ± 0.06 | Persistent Current [2]: No

C[C@@H](N)Cc1ccc(O)cc1.Cl [R(−) α-Me 3-des-OH DA (R6), R(–)-1-(4-Hydroxyphenyl)-2-aminopropane hydrochloride]
Hill coefficients [1]: 0.98 ± 0.08 | Persistent Current [2]: No | Relative persistent current (Ip relative to Io) after washout (−60 mV): much lower persistent current than S(+)AMPH (S1)

COc1ccc(CCN)cc1 [compound 8, 2-(4-Methoxyphenyl)-1-aminoethane]
Depolarizing current (10 μM): comparatively small depolarizing currents

NCCc1ccc(O)c(O)c1 [DA (2), dopamine, reference compound]
Hill coefficients: 1.32 ±0.07 | Persistent Current: No | Rank order of efficacy: S(+)AMPH > DA > R(−)AMPH

C[C@H](N)Cc1ccc(O)cc1.Cl [S(+) α-Me 3-des-OH DA (S6), S(+)-1-(4-Hydroxyphenyl)-2-aminopropane hydrochloride]
Recovery time constant T50 upon removal of compound, compared to DA (10 μM, −60 mV, normalized to 10 μM DA in same cell): no significant differences | Hill coefficients [1]: 0.49 ± 0.05 | Persistent Current [2]: No | Relative persistent current (Ip relative to Io) after washout (−60 mV): much lower persistent current than S(+)AMPH (S1)

COC(=O)[C@H]1[C@@H](OC(=O)c2ccccc2)C[C@@H]2CC[C@H]1N2C [Cocaine, reference compound]
Block of induced currents through hDAT: blocks the DA- and R(−)AMPH-induced initial currents

Cl.NCCc1ccc(O)cc1 [3-des-OH DA (3), 2-(4-Hydroxyphenyl)-1-aminoethane hydrochloride]
Hill coefficients: 0.91 ±0.08 | Persistent Current: no pronounced persistent current and No | EC50 (EC50): 1.45 µM and 1.43 µM

NCCc1cccc(O)c1 [4-des-OH DA (4), 2-(3-Hydroxyphenyl)-1-aminoethane]
Hill coefficients [1]: 1.07 ±0.09 | Persistent Current [2]: No | Persistent Current (ability to generate a persistent current at 10 μM and −60 mV, listed as 4-des-OH DA): no pronounced persistent current

Br.C[C@H](N)Cc1ccc(O)c(O)c1 [S(+) α-Me DA (S7), S(+)-1-(3,4-Dihydroxyphenyl)-2-aminopropane hydrobromide]
Hill coefficients [1]: 0.71 ± 0.11 | Persistent Current [2]: No

COc1cccc(CCN)c1 [compound 9, 2-(3-methoxyphenyl)-1-aminoethane]
Depolarizing current (10 μM): comparatively small depolarizing currents

COC(=O)[C@H]1C(c2ccc(I)cc2)C[C@@H]2CC[C@H]1N2C (stereo partly shown) [RTI-55, reference compound]
Block of S(+)AMPH-induced initial peak current and persistent current (10 μM RTI-55, −60 mV): blocked
